# Earlier results, collected in patent publication US5891889A, “Inhibitors of farnesyl-protein transferase” (Merck & Co., Inc., priority 1997, dated 1999).
# Tested on: farnesyl-protein transferase
# Conditions: via inhibition of HMG-CoA reductase; literature
row,Structure (SMILES),Indirect inhibition of farnesyl-protein transferase in vivo
1,CC[C@H](C)C(=O)O[C@H]1CCC=C2C=C[C@H](C)[C@H](CC[C@@H]3C[C@@H](O)CC(=O)O3)[C@H]21 [compactin],Indirect inhibition of farnesyl-protein transferase in vivo has been demonstrated
2,CC[C@H](C)C(=O)O[C@H]1C[C@@H](C)C=C2C=C[C@H](C)[C@H](CC[C@@H]3C[C@@H](O)CC(=O)O3)[C@H]21 [lovastatin],Indirect inhibition of farnesyl-protein transferase in vivo has been demonstrated
